Data from patent publication US10392368B2, “Pyrazolo and triazolo bicyclic compounds as JAK kinase inhibitors” (THERAVANCE BIOPHARMA R&D IP, LLC, priority 2017, dated 2019).

Assays:
[1] = biological target: T1, JAK3 (Homo sapiens, UniProt P52333); assay: Biochemical JAK3 kinase assay (LanthaScreen); parameters: GST; purchased Life Technologies; details: for Ki: read-out: JAK 3 (pKi) (converted); for JAK3 (pKi)-JAK1 (pKi): selectivity: difference of pKi JAK3 and pKi JAK1
T1 sequence (P52333 1-1124): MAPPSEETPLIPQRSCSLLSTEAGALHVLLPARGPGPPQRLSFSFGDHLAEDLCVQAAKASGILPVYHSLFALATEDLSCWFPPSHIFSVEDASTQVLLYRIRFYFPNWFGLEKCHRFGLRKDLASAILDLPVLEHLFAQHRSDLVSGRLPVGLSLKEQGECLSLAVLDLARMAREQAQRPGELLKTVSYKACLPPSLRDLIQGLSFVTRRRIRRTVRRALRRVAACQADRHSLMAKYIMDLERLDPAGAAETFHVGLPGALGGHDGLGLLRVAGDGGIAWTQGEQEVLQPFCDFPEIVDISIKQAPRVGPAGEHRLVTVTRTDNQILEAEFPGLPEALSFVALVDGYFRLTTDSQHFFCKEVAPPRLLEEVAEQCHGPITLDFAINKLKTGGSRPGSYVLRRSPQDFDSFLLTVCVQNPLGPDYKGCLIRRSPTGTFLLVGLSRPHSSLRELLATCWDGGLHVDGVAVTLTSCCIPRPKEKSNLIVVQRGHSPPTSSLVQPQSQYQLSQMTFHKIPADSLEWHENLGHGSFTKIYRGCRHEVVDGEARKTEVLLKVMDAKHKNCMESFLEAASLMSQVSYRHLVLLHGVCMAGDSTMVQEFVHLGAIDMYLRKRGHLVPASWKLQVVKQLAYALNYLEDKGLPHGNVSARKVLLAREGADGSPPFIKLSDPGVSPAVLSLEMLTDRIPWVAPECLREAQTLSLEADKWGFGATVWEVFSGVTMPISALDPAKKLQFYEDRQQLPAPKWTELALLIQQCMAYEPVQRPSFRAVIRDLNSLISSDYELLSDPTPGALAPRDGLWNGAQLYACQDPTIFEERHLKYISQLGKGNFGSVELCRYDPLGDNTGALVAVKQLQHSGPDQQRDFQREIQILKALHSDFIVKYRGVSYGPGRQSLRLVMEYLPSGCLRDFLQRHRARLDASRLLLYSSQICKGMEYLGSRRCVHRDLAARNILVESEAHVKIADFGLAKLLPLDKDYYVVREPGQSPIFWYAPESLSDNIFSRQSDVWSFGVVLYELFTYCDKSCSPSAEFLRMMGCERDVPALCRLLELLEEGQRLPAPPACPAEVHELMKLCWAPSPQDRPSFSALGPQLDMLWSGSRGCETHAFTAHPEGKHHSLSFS
How it was run: (§1)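 GST-tagged JAK enzyme and GFP-STAT1 peptide preincubated with compound 1 h, then ATP added; 1 h kinase reaction at ambient temperature, pH 7.5 HEPES/MgCl2 buffer, 1% DMSO. Tb-anti-pSTAT1 (pTyr701) TR-FRET, 520/495 nm ratio; IC50 from 4-parameter fit, converted to pKi via Cheng-Prusoff.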

[2] = tested on: IL-2 stimulated pSTAT5 in Tall-1 T cells; assay: Cellular JAK3 potency assay: inhibition of IL-2 stimulated pSTAT5 in Tall-1 T cells; type: cell-based, human; details: for IC50: Homo sapiens, TALL-1, IL-2 stimulated pSTAT5 in Tall-1 T cells, read-out: Tall-1 (pIC50) (converted)
How it was run: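 Tall-1 human T cells were preincubated with compound for 1 h at 37° C, then stimulated with IL-2 (300 ng/ml final) for 30 min. STAT5 phosphorylation in lysates was read by AlphaLisa bead emission, and IC50 from inhibition curves is given as pIC50 (mean±SD).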

[3] = biological target: T2, JAK2 (Homo sapiens, UniProt O60674); assay: Biochemical JAK2 kinase assay (LanthaScreen); details: for Ki: read-out: JAK 2 (pKi) (converted)
T2 construct: GST; purchased Life Technologies
Experimental: (§2) A panel of four LanthaScreen JAK biochemical assays (JAK1, 2, 3 and Tyk2) were carried in a common kinase reaction buffer (50 mM HEPES, pH 7.5, 0.01% Brij-35, 10 mM MgCl2, and 1 mM EGTA). Recombinant GST-tagged JAK enzymes and a GFP-tagged STAT1 peptide substrate were obtained from Life Technologies.
(§3) Serially or discretely diluted compounds were pre-incubated with each of the four JAK enzymes and the substrate in white 384-well microplates (Corning) at ambient temperature for 1 h. ATP was subsequently added to initiate the kinase reactions in 10 μL total volume, with 1% DMSO. […] Kinase reactions were allowed to proceed for 1 hour at ambient temperature before a 10 μL preparation of EDTA (10 mM final concentration) and Tb-anti-pSTAT1 (pTyr701) antibody (Life Technologies, 2 nM final concentration) in TR-FRET dilution buffer (Life Technologies) was added. The plates were allowed to incubate at ambient temperature for 1 h before being read on the EnVision reader (Perkin Elmer).
(§4) For dose-response analysis, percent inhibition data were plotted vs. compound concentrations, and IC50 values were determined from a 4-parameter robust fit model with the Prism software (GraphPad Software). Results were expressed as pIC50 (negative logarithm of IC50) and subsequently converted to pKi (negative logarithm of dissociation constant, Ki) using the Cheng-Prusoff equation.

[4] = biological target: T3, Tyk2 (Homo sapiens, UniProt P29597); assay: Biochemical Tyk2 kinase assay (LanthaScreen); details: for Ki: read-out: Tyk 2 (pKi) (converted)
T3 construct: GST; purchased Life Technologies
Experimental: as §2
as §3, with “Elmer). Emission ratio signals (520 nm/495 nm) were recorded and utilized to calculate the percent inhibition values based on DMSO and background controls.” for “Elmer).”
as §4

[5] = biological target: T4, JAK1 (Homo sapiens, UniProt P23458); assay: Biochemical JAK1 kinase assay (LanthaScreen); details: for Ki: read-out: JAK 1 (pKi) (converted)
T4 construct: GST; purchased Life Technologies
How it was run: as §1

T2 sequence (O60674 whole entry): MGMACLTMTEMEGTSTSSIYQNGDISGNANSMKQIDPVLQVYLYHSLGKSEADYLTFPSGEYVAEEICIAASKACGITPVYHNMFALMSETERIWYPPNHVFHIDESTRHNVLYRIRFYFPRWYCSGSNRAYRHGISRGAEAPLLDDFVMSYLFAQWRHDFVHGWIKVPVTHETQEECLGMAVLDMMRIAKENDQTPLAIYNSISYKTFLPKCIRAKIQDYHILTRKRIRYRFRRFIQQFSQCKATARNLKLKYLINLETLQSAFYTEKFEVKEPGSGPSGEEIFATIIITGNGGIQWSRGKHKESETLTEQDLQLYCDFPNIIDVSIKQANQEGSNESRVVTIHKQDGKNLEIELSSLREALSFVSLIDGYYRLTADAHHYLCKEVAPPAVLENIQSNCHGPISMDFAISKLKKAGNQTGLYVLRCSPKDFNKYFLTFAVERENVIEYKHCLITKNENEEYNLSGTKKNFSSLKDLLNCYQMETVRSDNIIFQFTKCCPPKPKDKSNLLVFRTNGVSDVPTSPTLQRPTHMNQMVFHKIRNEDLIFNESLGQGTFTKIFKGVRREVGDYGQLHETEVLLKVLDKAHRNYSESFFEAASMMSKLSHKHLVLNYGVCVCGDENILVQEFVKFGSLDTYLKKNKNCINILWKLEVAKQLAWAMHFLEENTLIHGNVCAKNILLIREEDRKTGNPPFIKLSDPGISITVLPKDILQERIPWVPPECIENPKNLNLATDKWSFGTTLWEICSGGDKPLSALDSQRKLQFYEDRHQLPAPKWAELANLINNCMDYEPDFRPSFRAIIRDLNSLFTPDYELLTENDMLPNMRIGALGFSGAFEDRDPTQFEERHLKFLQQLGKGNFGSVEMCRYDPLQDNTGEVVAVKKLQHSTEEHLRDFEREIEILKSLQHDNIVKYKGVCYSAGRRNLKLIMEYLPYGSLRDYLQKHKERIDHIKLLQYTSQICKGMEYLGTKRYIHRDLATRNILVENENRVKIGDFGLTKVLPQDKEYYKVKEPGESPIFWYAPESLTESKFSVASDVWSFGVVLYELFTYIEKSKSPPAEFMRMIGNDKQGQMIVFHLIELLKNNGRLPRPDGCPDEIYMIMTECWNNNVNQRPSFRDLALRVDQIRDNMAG
T3 sequence (P29597 whole entry): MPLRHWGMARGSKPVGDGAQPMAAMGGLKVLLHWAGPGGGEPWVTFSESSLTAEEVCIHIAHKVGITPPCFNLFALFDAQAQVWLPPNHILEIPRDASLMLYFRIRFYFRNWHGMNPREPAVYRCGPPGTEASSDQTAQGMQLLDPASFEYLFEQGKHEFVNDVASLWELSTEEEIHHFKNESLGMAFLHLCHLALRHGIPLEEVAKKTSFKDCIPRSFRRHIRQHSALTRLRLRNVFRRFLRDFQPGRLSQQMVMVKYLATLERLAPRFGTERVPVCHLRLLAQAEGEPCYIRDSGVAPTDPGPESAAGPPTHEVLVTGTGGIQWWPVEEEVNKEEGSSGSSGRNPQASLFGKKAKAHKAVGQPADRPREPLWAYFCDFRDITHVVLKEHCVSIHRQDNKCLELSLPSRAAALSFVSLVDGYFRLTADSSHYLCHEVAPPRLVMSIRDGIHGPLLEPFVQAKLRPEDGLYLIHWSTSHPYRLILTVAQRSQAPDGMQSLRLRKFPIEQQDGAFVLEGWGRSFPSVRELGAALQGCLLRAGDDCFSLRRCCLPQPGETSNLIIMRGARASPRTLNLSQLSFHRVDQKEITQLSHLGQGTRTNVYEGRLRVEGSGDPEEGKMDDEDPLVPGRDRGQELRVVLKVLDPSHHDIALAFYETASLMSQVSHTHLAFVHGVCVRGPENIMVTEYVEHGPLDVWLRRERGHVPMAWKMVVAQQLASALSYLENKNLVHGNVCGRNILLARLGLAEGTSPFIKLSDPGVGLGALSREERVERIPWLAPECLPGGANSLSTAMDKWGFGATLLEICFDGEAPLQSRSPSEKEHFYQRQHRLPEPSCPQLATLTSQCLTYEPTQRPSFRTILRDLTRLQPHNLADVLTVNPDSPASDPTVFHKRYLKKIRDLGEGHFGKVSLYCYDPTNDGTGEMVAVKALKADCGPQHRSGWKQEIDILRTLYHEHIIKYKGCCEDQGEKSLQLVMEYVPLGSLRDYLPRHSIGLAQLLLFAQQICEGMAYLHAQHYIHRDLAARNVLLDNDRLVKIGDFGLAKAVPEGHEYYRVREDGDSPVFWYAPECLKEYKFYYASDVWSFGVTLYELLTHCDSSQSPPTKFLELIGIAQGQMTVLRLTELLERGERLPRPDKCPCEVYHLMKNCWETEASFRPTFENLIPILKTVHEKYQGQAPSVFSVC
T4 sequence (P23458 whole entry): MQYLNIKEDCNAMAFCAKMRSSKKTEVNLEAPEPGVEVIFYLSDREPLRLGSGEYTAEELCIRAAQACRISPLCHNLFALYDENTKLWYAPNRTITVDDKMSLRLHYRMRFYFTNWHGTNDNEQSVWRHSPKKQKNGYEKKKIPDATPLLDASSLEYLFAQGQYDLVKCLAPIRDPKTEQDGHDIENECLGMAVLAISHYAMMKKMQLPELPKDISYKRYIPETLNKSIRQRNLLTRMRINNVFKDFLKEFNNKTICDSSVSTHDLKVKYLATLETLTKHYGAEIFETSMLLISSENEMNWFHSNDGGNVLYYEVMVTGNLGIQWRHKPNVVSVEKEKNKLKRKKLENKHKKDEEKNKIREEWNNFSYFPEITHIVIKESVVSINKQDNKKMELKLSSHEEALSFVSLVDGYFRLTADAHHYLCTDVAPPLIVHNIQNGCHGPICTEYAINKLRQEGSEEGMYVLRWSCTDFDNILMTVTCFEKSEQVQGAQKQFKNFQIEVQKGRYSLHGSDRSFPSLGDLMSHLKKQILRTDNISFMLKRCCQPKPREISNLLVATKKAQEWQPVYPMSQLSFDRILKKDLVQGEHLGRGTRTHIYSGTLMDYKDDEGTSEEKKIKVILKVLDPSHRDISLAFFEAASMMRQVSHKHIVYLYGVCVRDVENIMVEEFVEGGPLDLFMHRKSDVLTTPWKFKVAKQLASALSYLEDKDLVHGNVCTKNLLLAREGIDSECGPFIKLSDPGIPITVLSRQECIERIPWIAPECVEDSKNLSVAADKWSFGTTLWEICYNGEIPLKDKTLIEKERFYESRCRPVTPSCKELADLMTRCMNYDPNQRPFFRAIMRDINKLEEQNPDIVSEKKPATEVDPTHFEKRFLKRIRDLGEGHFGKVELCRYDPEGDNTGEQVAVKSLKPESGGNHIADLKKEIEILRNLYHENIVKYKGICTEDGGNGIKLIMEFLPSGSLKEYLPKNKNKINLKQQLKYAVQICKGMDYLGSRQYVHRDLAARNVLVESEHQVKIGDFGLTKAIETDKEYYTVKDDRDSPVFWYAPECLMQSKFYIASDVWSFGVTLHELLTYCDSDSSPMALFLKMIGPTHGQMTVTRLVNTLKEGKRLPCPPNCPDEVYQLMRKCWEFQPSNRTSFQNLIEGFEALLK

Compound | Ki [1] [nM] | JAK3 (pKi)-JAK1 (pKi) [1] | IC50 [2] [nM] | Ki [3] [nM] | Ki [4] [nM] | Ki [5] [nM] | JAK 3 (pKi) [1] | Tall-1 (pIC50) ([2]; IL-2 stimulated pSTAT5 in Tall-1 T cells) | JAK 2 (pKi) [3] | Tyk 2 (pKi) [4] | JAK 1 (pKi) [5]
C=CC(=O)N1C[C@@H](Oc2cc(-c3ccc(O)cc3)cc3[nH]ncc23)C[C@H]1C [Compound 1-11] | < 0.1 | A (a value of 3 or above) | < 31.6 | > 100 | > 100 | > 100 |  |  |  |  | 
C=CC(=O)N1CC[C@H](Oc2cc(-c3ccc(O)c(F)c3Cl)cc3[nH]ncc23)C1 [Compound 1-15] | < 0.1 | A (a value of 3 or above) | 31.6 to 200 | > 100 | > 100 | > 100 |  |  |  |  | 
C=CC(=O)N1CC[C@H](Oc2cc(-c3cc(F)c(O)cc3C)cc3[nH]ncc23)C1 [Compound 1-16] | 0.1 to 1 | B (a value of 2.3 to 3) | 31.6 to 200 | 10 to 100 | > 100 | > 100 |  |  |  |  | 
C=CC(=O)N1CC[C@H](Oc2cc(-c3ccc(O)cc3F)cc3[nH]ncc23)C1 [Compound 1-17] | 0.1 to 1 | A (a value of 3 or above) | < 31.6 | 10 to 100 | > 100 | > 100 |  |  |  |  | 
C=CC(=O)N1CC[C@H](Oc2cc(-c3c(F)cc(O)cc3F)cc3[nH]ncc23)C1 [Compound 1-18] | 0.1 to 1 | B (a value of 2.3 to 3) | < 31.6 | 10 to 100 | > 100 | 10 to 100 |  |  |  |  | 
C=CC(=O)N1CC[C@H](Oc2cc(-c3cc(F)c(O)cc3F)cc3[nH]ncc23)C1 [Compound 1-19] |  | A (a value of 3 or above) |  |  |  |  | B (a pKi value between 9 and 10 (Ki between 1 nM and 0.1 nM)) | B (a pIC50 value between 6.7 (included) and 7.5 (IC50 between 200 nM and 32 nM)) | D (a pKi value between 7 and 8 (Ki between 100 nM and 10 nM)) | E (a pKi value of 7 or below (Ki of 100 nM or above)) | E (a pKi value of 7 or below (Ki of 100 nM or above))
C=CC(=O)N1CC[C@H](Oc2cc(-c3ccc(O)cc3)cc3[nH]nc(C)c23)C1 [Compound 1-20] | 0.1 to 1 | B (a value of 2.3 to 3) | < 31.6 | 10 to 100 | > 100 | > 100 |  |  |  |  | 
C=CC(=O)N1CC[C@H](Oc2cc(-c3ccc(O)cc3)cc3[nH]nc(NC)c23)C1 [Compound 1-21] | 0.1 to 1 | A (a value of 3 or above) | 31.6 to 200 | > 100 | > 100 | > 100 |  |  |  |  | 
C=CC(=O)N1CC[C@H](Oc2cc(-c3ccc(O)cc3)cc3[nH]nc(COC)c23)C1 [Compound 1-22] | < 0.1 | A (a value of 3 or above) | 31.6 to 200 | 10 to 100 | > 100 | > 100 |  |  |  |  | 
